What was measured:
L-selectin = conditions: in vitro, plastic plate; BIOCHEM. BIOPHY. RES. COM. 190, 426 (1993); cited from earlier work
[1] = system: lung damage model induced by cobra venom factor (CVF); bleeding; experiment: Anti-inflammatory action to lung damage model induced by CVF: index of bleeding (hemoglobin absorbance, 541 nm, in lung homogenate supernatant); assay type: in vivo, Lewis rats; conditions: for inhibition in vivo at 0.2 mg: Rattus norvegicus, iv, 0.5 h, read-out: Inhibition rate (%), index of bleeding
Description: (§1) Anti-inflammatory action to lung damage model induced by CVF Compounds obtained by Examples and an exemplary known compound (sulfatide) were selected as Test Compounds to check an inflammatory action thereof to a lung damage model induced by cobra venom factor (CVF), in accordance with the method described by M. S. Mulligan et al ["J. IMMUNOL.", Vol.151, page 6410 (1993); and "INT. IMMUNOL.", Vol. 7, page 1107 (1995)].
(§2) Namely, the test compound was intravenously injected by an amount of 0.2 mg/rat to test animals (Lewis rats, age of 8 weeks, 5 animals in each group). After lapsed 5 minutes from administration, CVF (20U/2 ml/kg) was administered in a tail vein, and after 30 minutes, a laparotomy was carried out under nembutal anesthesia to perfuse the lung with phosphate-buffered saline (PBS, pH7.4) by injecting the same from right ventricle and to exenterate the lung. The extracted lung was homogenized with phosphate buffer (pH 7.4), centrifuged to collect a supernatant, and determined absorbance which was admitted as index of bleeding (It measures an amount of hemoglobin and thus detection wave-length was set to 541 nm).
(§3) Each inhibition rate (%) was calculated by
(§4) 100×[1-(value of test compound-value of negative control)/(value of positive control-value of negative control)].

[2] = system: lung damage model induced by cobra venom factor (CVF); infiltration in neutrocyte (myeloperoxidase); experiment: Anti-inflammatory action to lung damage model induced by CVF: myeloperoxidase activity as index of infiltration in neutrocyte; assay type: in vivo, Lewis rats; conditions: for inhibition in vivo at 0.2 mg: Rattus norvegicus, iv, 0.5 h, read-out: Inhibition rate (%), myeloperoxidase activity as index of infiltration in neutrocyte
Description: as §1, §2
On the other hand, the precipitation obtained by centrifugation was sonicated in the presence of cetrimide and centrifuged to obtain a supernatant, an activity myeloperoxidase therein being measured as an index of infiltration in neutrocyte.
as §3, §4

[3] = system: lung injury model, activation of whole body complements by CVF; conditions: INT. IMMUNOL. 7, 1107 (1995); cited from earlier work
[4] = system: lung injury model, lgG immunocomplex; conditions: INT. IMMUNOL. 7, 1107 (1995); cited from earlier work

| Compound | inhibition in vivo at 0.2 mg [1] [%] | inhibition in vivo at 0.2 mg [2] [%] | other results |
| --- | --- | --- | --- |
| CCCCCCCCCCCCCCC(CCCCCCCCCCCCCC)CO[C@@H]1O[C@H](CO)[C@@H](O[C@@H]2O[C@H](CO)[C@H](O)[C@H](OS(=O)(=O)O)[C@H]2O)[C@H](O)[C@H]1O [2-tetradesyl hexadesyl O-β-D-galactopyranosyl-(1→4)-β-D-glucopyranoside 3'-sulfate] | – | – | binding specificity to L-selectin (L-selectin): show a binding specificity to L-selectin |
| CCCC(CCC)CO[C@@H]1O[C@H](CO)[C@H](O)[C@H](OS(=O)(=O)O)[C@H]1O[C@@H]1O[C@@H](C)[C@@H](O)[C@@H](OS(=O)(=O)O)[C@@H]1O [Example 24-1, Disodium 2-propylpentyl O-α-L-fucopyranosyl-(1→2)-β-D-galactopyranoside 3,3'-disulfate] | 54 | 47 | – |
| CCCC(CCC)CO[C@@H]1O[C@H](COS(=O)(=O)O)[C@H](O)[C@H](OS(=O)(=O)O)[C@H]1O[C@@H]1O[C@@H](C)[C@@H](O)[C@@H](O)[C@@H]1O [Example 25, Disodium 2-propylpentyl O-α-L-fucopyranosyl-(1→2)-β-D-galactonyranoside 3,6-disulfate] | 56 | 50 | – |
| CC(C)CO[C@@H]1O[C@H](CO)[C@H](O)[C@H](OS(=O)(=O)O)[C@H]1O [Example 1-1, Sodium 2-methylpropyl β-D-galactopyranoside 3-sulfate] | 22 | 22 | – |
| CCCCCCCCCCCCCCC(CCCCCCCCCCCCCC)CO[C@@H]1O[C@H](CO)[C@H](O)[C@H](OS(=O)(=O)O)[C@H]1O [2-tetradesyl hexadesyl β-D-galactopyranoside 3-sulfate] | – | – | inflammation inhibition effect [3]: shows inflammation inhibition effect; inflammation inhibition effect [4]: shows inflammation inhibition effect; binding specificity to L-selectin (L-selectin): show a binding specificity to L-selectin |
| CCCCCCCCCCCCCCC(CCCCCCCCCCCCCC)CO[C@@H]1O[C@H](CO)[C@@H](O[C@@H]2O[C@H](CO)[C@H](OP(=O)(O)O)[C@H](OP(=O)(O)O)[C@H]2O)[C@H](O)[C@H]1O [Example 22, Tetrasodium 2-tetradecylhexadecyl O-β-D-galactopyranosyl-(1→4)-β-D-glucopyranoside 3',4'-diphosphate] | 65 | 58 | – |
| CCCC(CCC)CO[C@@H]1O[C@H](COS(=O)(=O)O)[C@H](O)[C@H](OS(=O)(=O)O)[C@H]1OS(=O)(=O)O [Example 7-1, Trisodium 2-propylpentyl β-D-galactopyranoside 2,3,6-trisulfate] | 36 | 26 | – |
| CC(C)CO[C@@H]1O[C@H](COS(=O)(=O)O)[C@H](OS(=O)(=O)O)[C@H](OS(=O)(=O)O)[C@H]1OS(=O)(=O)O [Example 3-2, tetrasodium 2-methylpropyl β-D-galactopyranoside 2,3,4,6-tetrasulfate] | 49 | 24 | – |
| CCCC(CCC)CO[C@@H]1O[C@H](CO)[C@@H](O)[C@H](OP(=O)(O)O)[C@H]1OP(=O)(O)O [Example 19, Tetrasodium 2-propylpentyl β-D-glucopyranoside 2,3-diphosphate] | 43 | 39 | – |
| CCCC(CCC)CO[C@@H]1O[C@H](COS(=O)(=O)O)[C@H](O)[C@H](OS(=O)(=O)O)[C@H]1O[C@@H]1O[C@@H](C)[C@@H](O)[C@@H](OS(=O)(=O)O)[C@@H]1O [Example 26, Trisodium 2-propylpentyl O-α-L-fucopyranosyl-(1→2)-β-D-galactopyranoside 3,3',6-trisulfate] | 56 | 50 | – |
| CCCCCCCCCCCCCCCCCCCCCCC(CCCCCCCCCCCCCCCC)CO[C@@H]1O[C@H](CO)[C@H](O)[C@H](OS(=O)(=O)O)[C@H]1O (stereo partly drawn) [Example 8, Sodium 2-hexadecyltetracosyl β-D-galactopyranoside 3-sulfate] | 53 | 51 | – |
| CC(C)CO[C@@H]1O[C@H](COS(=O)(=O)O)[C@H](O)[C@H](O)[C@H]1O [Example 2, Sodium 2-methylpropyl β-D-galactopyranoside 6-sulfate] | 36 | 32 | – |
| CCCC(CCC)CO[C@@H]1O[C@H](COS(=O)(=O)O)[C@H](O)[C@H](O)[C@H]1O [Example 5, Sodium 2-propylpentyl β-D-galactopyranoside 6-sulfate] | 52 | 47 | – |
| CCCCCCCCCCCCCCC(CCCCCCCCCCCCCC)CO[C@@H]1O[C@H](COS(=O)(=O)O)[C@H](O)[C@H](OS(=O)(=O)O)[C@H]1O[C@@H]1O[C@@H](C)[C@@H](O)[C@@H](OS(=O)(=O)O)[C@@H]1O [Example 30, Trisodium 2-tetradecylhexadecyl O-α-L-fucopyranosyl-(1→2)-β-D-galactopyranoside 3,3',6-trisulfate] | 70 | 62 | – |
| CCCCCCCCCCCCCCC(CCCCCCCCCCCCCC)CO[C@@H]1O[C@H](CO)[C@H](O)[C@H](OP(=O)(O)O)[C@H]1O[C@@H]1O[C@@H](C)[C@@H](O)[C@@H](O)[C@@H]1O [Example 27-2, disodium 2-tetradecylhexadecyl O-α-L-fucopyranosyl-(1→2)-β-D-galactopyranoside 3-phosphate] | 62 | 58 | – |
| Sulfatide [reference compound] | – | – | Inhibition rate (%), index of bleeding ([1]; 0.2 mg/rat i.v., 5 min before CVF (20U/2 ml/kg, tail vein), hemoglobin absorbance at 541 nm, Table 1): 53%; Inhibition rate (%), myeloperoxidase activity as index of infiltration in neutrocyte ([2]; 0.2 mg/rat i.v., 5 min before CVF (20U/2 ml/kg, tail vein), lung precipitation, Table 2): 50%; inflammation inhibition effect [3]: shows inflammation inhibition effect; inflammation inhibition effect [4]: shows inflammation inhibition effect |
| CCCCCCCCCCCCCCC(CCCCCCCCCCCCCC)CO[C@@H]1O[C@H](CO)[C@H](O)[C@H](OS(=O)(=O)O)[C@H]1O[C@@H]1O[C@@H](C)[C@@H](O)[C@@H](O)[C@@H]1O [Example 27-1, Sodium 2-tetradecylhexadecyl O-α-L-fucopyranosyl-(1→2)-β-D-galactopyranoside 3-sulfate] | 65 | 61 | – |
| CCCC(CCC)CO[C@@H]1O[C@H](CO)[C@H](O)[C@H](OP(=O)(O)O)[C@H]1O [Example 18, Disodium 2-propylpentyl β-D-galactopyranoside 3-phosphate] | 50 | 51 | – |
